# Read-outs that look alike come from different tables or passages of the source.
# Key:
# [1] = target: T1, His tagged PTPN2 (TC45) protein (Homo sapiens, UniProt P17706); experiment: Mobility shift assay (MSA) for potency of PTPN2 inhibitors; type: biochemical; conditions: read-out: PTPN2 MSA IC50
# T1 construct: made in house
# T1 sequence (P17706 with tags, fused parts or gaps isoform P17706-2): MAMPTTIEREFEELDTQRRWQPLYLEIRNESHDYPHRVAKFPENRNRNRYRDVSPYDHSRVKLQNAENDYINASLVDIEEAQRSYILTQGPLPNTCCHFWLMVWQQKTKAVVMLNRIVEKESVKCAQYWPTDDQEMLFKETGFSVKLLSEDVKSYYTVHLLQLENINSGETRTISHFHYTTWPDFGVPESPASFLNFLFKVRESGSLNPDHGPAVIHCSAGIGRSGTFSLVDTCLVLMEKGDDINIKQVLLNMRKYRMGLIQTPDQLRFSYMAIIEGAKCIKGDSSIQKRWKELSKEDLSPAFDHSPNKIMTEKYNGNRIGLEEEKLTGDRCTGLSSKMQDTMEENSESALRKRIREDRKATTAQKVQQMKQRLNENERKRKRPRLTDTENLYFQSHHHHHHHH
# Procedure, shortened: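 IC50 values were derived from % inhibition of substrate conversion, measured by microfluidic mobility shift (ex 488/em 530) after quenching. The fluorescent phosphotyrosine insulin-receptor peptide ([…]) reacted for 10 min at room temperature with 0.5 nM His-tagged TC45 PTPN2 that had been preincubated 10 min with compound (12 points, 1:3). Buffer was HEPES pH 7.5 with EGTA, EDTA, Tween 20 and DTT.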
# [2] = system: B16F10 mouse melanoma cells; experiment: B16F10 IFNγ-induced cellular growth inhibition assay; type: cell-based; conditions: Mus musculus, B16-F10, 33 μM compound
# Method: B16F10 mouse melanoma cells (ATCC Cat ^#CRL-6475, Manassas, Va.) were seeded at a density of 500 cells per well in a 384-well clear bottom plate (Corning Cat^# 3765, Corning, N.Y.) in 25 μL total volume of DMEM+10% FBS (Sigma Cat ^#D6429 and Sigma Cat ^#F4135, St. Louis, Mo.). Cells were allowed to adhere overnight at 37° C.+5% CO2. On the following day, 12.5 μL of mouse IFNγ (RD systems Cat485-MI/CF, Minneapolis, Minn.) was added to half of the plate (columns 13-24) at a concentration of 2 ng/mL for a final assay concentration of 0.5 ng/mL of IFNγ. Media only (12.5 μL of DMEM+10% FBS) was added to the remainder of the plate (columns 1-12). Next, compounds resuspended in DMSO (Sigma Cat ^#D2650) at 100 mM were diluted in semi-log dilutions in DMSO ranging from 100 mM to 0.001 mM and DMSO only controls were included. The compound/DMSO dilutions were further diluted 1:250 in DMEM+10% FBS, and 12.5 μL of these dilutions were added in triplicates to cells of both treatment arms (with and without IFNγ). Final compound concentrations ranged from 100 μM to 0.001 μM with a final DMSO concentration of 0.1%. Compounds were only dosed in the inner 240 wells, avoiding the outer 2-well perimeter of the plate to minimize edge effects. Finally, the plate was loaded into an IncuCyte® S3 Live Cell Analysis System (Essen Bioscience-Sartorius, Ann Arbor, Mich.) maintained in a 37° C.+5% CO2 incubator, allowed to equilibrate for 2 hours, and imaged every 6 hours for 5 days. Confluence over time for compound dilutions in the presence and absence of IFNγ was measured. Growth inhibition values were obtained when the “DMSO/no IFNγ” control reached confluence >95%. At these time points, the percent growth inhibition of each compound at the indicated concentration was calculated relative to the “DMSO/with IFNγ” control.
# [3] = +0.5 ng/mL IFNγ, relative to DMSO control, read-out: % B16F10 growth inhibition (+0.5 ng/mL IFNγ) @ 33 μM
# [4] = no IFNγ, read-out: % B16F10 growth inhibition (no IFNγ) @ 33 μM
SMILES,IC50 [1],"inhibition at 33 µM [2, 3]","inhibition at 33 µM [2, 4]"
"CC(C)NC(=O)Oc1ccc2cc(O)c(N3CC(=O)NS3(=O)=O)c(F)c2c1 [Compound 103, 8-fluoro-6-hydroxy-7-(1,1,4-trioxo-1λ^6,2,5-thiadiazolidin-2-yl)naphthalen-2-yl propan-2-ylcarbamate]",1 to 10 nM,60 to 90%,< 25%
"O=C1CN(c2c(O)cc3ccc4occc4c3c2F)S(=O)(=O)N1 [Compound 104, 5-(9-fluoro-7-hydroxynaphtho[2,1-b]furan-8-yl)-1λ^6,2,5-thiadiazolidine-1,1,3-trione]",1 to 10 nM,25 to 59%,< 25%
"O=C1CN(c2c(O)cc3ccc(OCCN4CCC4)cc3c2F)S(=O)(=O)N1 [Compound 105, 5-{7-[2-(azetidin-1-yl)ethoxy]-1-fluoro-3-hydroxynaphthalen-2-yl}-1λ^6,2,5-thiadiazolidine-1,1,3-trione]",1 to 10 nM,60 to 90%,< 25%
"[2H]c1c(O)c(N2C([2H])([2H])C(=O)NS2(=O)=O)c(F)c2cc(OC)ccc12 [Compound 106, 5-[1-fluoro-3-hydroxy-7-methoxy(4-^2H)naphthalen-2-yl](4,4-^2H2)-1λ^6,2,5-thiadiazolidine-1,1,3-trione]",1 to 10 nM,60 to 90%,< 25%
"CNc1ccc2cc(O)c(N3CC(=O)NS3(=O)=O)c(F)c2c1 [Compound 107, 5-[1-fluoro-3-hydroxy-7-(methylamino)naphthalen-2-yl]-1λ^6,2,5-thiadiazolidine-1,1,3-trione]",10 to 100 nM,60 to 90%,< 25%
"N#CCCCCOc1ccc2cc(O)c(N3CC(=O)NS3(=O)=O)c(F)c2c1 [Compound 111, 5-{[8-fluoro-6-hydroxy-7-(1,1,4-trioxo-1λ^6,2,5-thiadiazolidin-2-yl)naphthalen-2-yl]oxy}pentanenitrile]",< 1 nM,60 to 90%,< 25%
"O=C1CN(c2c(O)cc3ccc(OCCN4CCCCC4)cc3c2F)S(=O)(=O)N1 [Compound 112, 5-{1-fluoro-3-hydroxy-7-[2-(piperidin-1-yl)ethoxy]naphthalen-2-yl}-1λ^6,2,5-thiadiazolidine-1,1,3-trione]",10 to 100 nM,25 to 59%,< 25%
"O=C1CN(c2c(O)cc3ccc(OCC4CCNCC4)cc3c2F)S(=O)(=O)N1 [Compound 114, 5-{1-fluoro-3-hydroxy-7-[(piperidin-4-yl)methoxy]naphthalen-2-yl}-1λ^6,2,5-thiadiazolidine-1,1,3-trione]",1 to 10 nM,60 to 90%,< 25%
"CC(C)(CC#N)CCOc1ccc2cc(O)c(N3CC(=O)NS3(=O)=O)c(F)c2c1 [Compound 115, 5-{[8-fluoro-6-hydroxy-7-(1,1,4-trioxo-1λ^6,2,5-thiadiazolidin-2-yl)naphthalen-2-yl]oxy}-3,3-dimethylpentanenitrile]",< 1 nM,60 to 90%,< 25%
"CC(C)(C)CCNc1ccc2cc(O)c(N3CC(=O)NS3(=O)=O)c(F)c2c1 [Compound 116, 5-{7-[(3,3-dimethylbutyl)amino]-1-fluoro-3-hydroxynaphthalen-2-yl}-1λ^6,2,5-thiadiazolidine-1,1,3-trione]",1 to 10 nM,> 90%,< 25%
"COc1ccc2c(F)c(O)c(N3CC(=O)NS3(=O)=O)c(F)c2c1 [Compound 117, 5-(1,4-difluoro-3-hydroxy-7-methoxynaphthalen-2-yl)-1λ^6,2,5-thiadiazolidine-1,1,3-trione]",1 to 10 nM,25 to 59%,< 25%
"[2H]C([2H])([2H])Oc1ccc2cc(O)c(N3CC(=O)NS3(=O)=O)c(F)c2c1 [Compound 118, 5-{1-fluoro-3-hydroxy-7-[(^2H3)methyloxy]naphthalen-2-yl}-1λ^6,2,5-thiadiazolidine-1,1,3-trione]",1 to 10 nM,60 to 90%,< 25%
